Experimental data as given in ChEMBL document CHEMBL3991601, “The target landscape of clinical kinase drugs” (Science, 2017).
Calls of active or inactive are those of the source. Rule as the data show it, for most assays here: actives have a measured Kd and inactives only a lower limit.

Legend:
[1] = biological target: T1, Bone morphogenetic protein receptor type-2 (Homo sapiens, UniProt Q13873)
T1 sequence (Q13873 whole entry): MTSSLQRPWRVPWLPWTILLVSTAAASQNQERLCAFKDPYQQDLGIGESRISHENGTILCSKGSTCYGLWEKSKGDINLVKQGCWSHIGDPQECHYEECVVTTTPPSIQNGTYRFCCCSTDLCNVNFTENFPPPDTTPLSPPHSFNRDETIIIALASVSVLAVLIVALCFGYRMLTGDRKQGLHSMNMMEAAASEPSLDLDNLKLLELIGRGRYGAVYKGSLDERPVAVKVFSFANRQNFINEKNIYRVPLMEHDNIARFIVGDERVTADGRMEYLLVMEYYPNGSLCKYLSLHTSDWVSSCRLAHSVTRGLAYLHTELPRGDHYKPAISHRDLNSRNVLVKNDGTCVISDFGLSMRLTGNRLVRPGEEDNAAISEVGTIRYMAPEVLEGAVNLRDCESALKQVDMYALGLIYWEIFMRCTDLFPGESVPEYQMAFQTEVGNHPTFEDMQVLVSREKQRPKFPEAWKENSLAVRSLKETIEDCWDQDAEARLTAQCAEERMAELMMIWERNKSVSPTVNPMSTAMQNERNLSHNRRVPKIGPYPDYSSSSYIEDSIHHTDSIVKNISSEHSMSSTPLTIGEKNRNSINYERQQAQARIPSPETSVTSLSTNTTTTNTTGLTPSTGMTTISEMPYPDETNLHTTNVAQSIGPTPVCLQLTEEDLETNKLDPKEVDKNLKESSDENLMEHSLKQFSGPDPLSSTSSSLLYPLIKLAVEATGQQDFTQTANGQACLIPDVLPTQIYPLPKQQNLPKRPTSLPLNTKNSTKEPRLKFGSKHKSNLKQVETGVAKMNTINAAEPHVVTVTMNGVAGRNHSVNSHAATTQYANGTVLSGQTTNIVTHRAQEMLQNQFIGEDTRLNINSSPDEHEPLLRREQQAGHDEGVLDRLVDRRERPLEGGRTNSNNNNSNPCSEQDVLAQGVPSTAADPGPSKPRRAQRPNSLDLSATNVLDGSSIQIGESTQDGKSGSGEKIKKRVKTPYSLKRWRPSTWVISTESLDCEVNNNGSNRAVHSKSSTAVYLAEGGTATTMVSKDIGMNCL

[2] = biological target: Casein kinase I isoform epsilon (Homo sapiens, UniProt P49674)
Sequence of Casein kinase I isoform epsilon (P49674 whole entry, canonical isoform): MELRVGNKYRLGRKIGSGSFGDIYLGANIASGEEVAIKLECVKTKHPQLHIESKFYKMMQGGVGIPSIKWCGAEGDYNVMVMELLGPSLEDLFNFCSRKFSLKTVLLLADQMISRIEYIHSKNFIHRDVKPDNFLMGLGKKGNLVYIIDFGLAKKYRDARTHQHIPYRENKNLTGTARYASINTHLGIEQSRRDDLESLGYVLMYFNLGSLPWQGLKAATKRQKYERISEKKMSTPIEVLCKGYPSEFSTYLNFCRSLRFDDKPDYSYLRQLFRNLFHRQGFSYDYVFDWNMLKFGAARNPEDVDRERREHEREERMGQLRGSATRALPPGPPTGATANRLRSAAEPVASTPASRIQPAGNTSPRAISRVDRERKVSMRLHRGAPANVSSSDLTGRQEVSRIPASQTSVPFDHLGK

[3] = biological target: T2, ATP-dependent RNA helicase DDX1 (Homo sapiens, UniProt Q92499)
T2 sequence (Q92499 whole entry): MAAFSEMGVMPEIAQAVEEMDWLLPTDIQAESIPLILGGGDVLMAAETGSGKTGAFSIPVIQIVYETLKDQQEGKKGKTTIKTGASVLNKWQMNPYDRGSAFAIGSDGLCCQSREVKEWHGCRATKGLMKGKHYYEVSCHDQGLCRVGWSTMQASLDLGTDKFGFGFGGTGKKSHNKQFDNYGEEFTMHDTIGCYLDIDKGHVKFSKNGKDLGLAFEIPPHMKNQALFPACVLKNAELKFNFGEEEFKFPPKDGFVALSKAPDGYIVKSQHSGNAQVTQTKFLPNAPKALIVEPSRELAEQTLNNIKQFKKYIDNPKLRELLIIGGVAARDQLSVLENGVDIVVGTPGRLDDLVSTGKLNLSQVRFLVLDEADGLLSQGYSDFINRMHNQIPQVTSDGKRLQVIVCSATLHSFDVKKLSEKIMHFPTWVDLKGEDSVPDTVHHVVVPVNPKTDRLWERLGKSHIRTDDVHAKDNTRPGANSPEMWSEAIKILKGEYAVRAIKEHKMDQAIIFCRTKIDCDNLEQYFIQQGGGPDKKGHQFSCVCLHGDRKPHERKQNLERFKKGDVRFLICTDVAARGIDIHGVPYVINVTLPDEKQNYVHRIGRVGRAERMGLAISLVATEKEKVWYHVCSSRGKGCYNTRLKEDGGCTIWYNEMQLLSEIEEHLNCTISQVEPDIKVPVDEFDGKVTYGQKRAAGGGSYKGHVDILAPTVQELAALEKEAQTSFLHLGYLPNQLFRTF

[4] = biological target: cAMP-dependent protein kinase catalytic subunit gamma (Homo sapiens, UniProt P22612)
Sequence of cAMP-dependent protein kinase catalytic subunit gamma (P22612 whole entry): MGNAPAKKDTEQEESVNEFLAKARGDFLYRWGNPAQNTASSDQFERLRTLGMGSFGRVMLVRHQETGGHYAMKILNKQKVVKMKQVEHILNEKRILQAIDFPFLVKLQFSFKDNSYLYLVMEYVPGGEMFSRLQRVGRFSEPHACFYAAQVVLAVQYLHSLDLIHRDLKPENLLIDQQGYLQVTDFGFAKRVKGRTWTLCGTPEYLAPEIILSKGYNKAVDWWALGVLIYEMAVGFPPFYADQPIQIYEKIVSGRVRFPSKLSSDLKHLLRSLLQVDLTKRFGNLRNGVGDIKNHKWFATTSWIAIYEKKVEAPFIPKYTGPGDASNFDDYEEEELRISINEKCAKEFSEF

[5] = biological target: T3, Serine/threonine-protein kinase TAO1 (Homo sapiens, UniProt Q7L7X3)
T3 sequence (Q7L7X3 whole entry): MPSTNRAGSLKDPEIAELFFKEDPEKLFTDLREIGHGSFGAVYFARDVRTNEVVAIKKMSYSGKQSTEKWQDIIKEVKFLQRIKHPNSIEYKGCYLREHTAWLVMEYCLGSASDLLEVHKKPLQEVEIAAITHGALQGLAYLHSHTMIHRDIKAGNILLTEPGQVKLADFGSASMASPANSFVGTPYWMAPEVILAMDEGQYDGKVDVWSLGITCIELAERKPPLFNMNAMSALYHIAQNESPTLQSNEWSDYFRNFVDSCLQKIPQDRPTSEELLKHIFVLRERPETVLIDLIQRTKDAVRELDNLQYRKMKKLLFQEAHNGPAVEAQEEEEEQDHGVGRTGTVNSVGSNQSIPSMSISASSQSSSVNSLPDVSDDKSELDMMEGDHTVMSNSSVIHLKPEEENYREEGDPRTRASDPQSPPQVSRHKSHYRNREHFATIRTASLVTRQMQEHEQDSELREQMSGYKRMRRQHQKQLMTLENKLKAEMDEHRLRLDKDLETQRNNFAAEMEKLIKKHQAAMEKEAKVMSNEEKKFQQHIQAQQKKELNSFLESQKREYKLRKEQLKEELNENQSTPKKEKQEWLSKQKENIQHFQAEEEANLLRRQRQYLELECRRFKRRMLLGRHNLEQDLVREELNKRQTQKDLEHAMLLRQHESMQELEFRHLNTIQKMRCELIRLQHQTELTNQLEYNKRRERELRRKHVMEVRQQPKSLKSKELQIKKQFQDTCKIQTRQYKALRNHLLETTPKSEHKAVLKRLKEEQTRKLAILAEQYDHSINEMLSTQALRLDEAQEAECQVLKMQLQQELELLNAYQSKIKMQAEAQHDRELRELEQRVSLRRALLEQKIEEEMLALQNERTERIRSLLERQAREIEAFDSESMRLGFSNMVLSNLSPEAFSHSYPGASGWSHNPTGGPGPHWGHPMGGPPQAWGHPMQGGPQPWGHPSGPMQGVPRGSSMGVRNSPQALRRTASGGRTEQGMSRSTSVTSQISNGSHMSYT
Also: in the data inactive means no Kd found up to 30 µM.

For `COc1cc2ncnc(Nc3ccc(O)cc3)c2cc1OC` [WHI-P131], the Kd [1] was > 30 µM (inactive), the Kd [2] was > 30 µM (inactive) and the Kd [3] was > 30 µM (inactive). For the same compound, the Kd [4] was > 30 µM (inactive) and the Kd [5] was > 30 µM (inactive).

In the case of `C=CC(=O)Nc1cc(Nc2nccc(-c3cn(C)c4ccccc34)n2)c(OC)cc1N(C)CCN(C)C` [OSIMERTINIB], the Kd [1] is reported as > 30 µM (inactive), the Kd [2] is reported as > 30 µM (inactive) and the Kd [3] is reported as > 30 µM (inactive). For the same compound, the Kd [4] was > 30 µM (inactive) and the Kd [5] was > 30 µM (inactive).

For `FC(F)(F)c1ccc(CNc2ccc(Cc3c[nH]c4ncc(Cl)cc34)cn2)cn1` [PEXIDARTINIB], the Kd [1] was > 30 µM (inactive), the Kd [2] was > 30 µM (inactive) and the Kd [3] was > 30 µM (inactive). For the same compound, the Kd [4] was > 30 µM (inactive) and the Kd [5] was > 30 µM (inactive).

`COc1ccc2c(OCc3nnc4ccc(-c5ccccc5)nn34)ccnc2c1` [AMG-208] was tested, and the Kd [1] was > 30 µM (inactive), the Kd [2] was > 30 µM (inactive) and the Kd [3] was > 30 µM (inactive). The Kd [4] was 0.002 µM and the Kd [5] was > 30 µM (inactive).

`CC1(COc2ccc3c(c2)ncn3-c2ccc3cccc(N4CCC(N)CC4)c3n2)COC1` [CRENOLANIB] was tested, and the Kd [1] was > 30 µM (inactive), the Kd [2] was > 30 µM (inactive) and the Kd [3] was > 30 µM (inactive). For the same compound, the Kd [4] was > 30 µM (inactive) and the Kd [5] was 1.24 µM.

For `COc1cccc2cc(-c3nc([C@H]4CC[C@H](C(=O)O)CC4)n4ncnc(N)c34)[nH]c12` [OSI-027], the Kd [1] was 2.1 µM, the Kd [2] was > 30 µM (inactive) and the Kd [3] was > 30 µM (inactive). The Kd [4] was > 30 µM (inactive) and the Kd [5] was > 30 µM (inactive).

With `O=C(NC[C@H](O)CO)c1ccncc1Nc1ccc(I)cc1F` [PIMASERTIB] the Kd [1] was > 30 µM (inactive), the Kd [2] was > 30 µM (inactive) and the Kd [3] was > 30 µM (inactive). For the same compound, the Kd [4] was > 30 µM (inactive) and the Kd [5] was > 30 µM (inactive).

For `c1cc(OCCN2CCCCC2)cc(-c2n[nH]c3ccc(-c4nc[nH]n4)cc23)c1` [CC-401], the Kd [1] was > 30 µM (inactive), the Kd [2] was 0.285 µM (active) and the Kd [3] was > 30 µM (inactive). The Kd [4] was > 30 µM (inactive) and the Kd [5] was > 30 µM (inactive).

`COc1ccc(-c2ccc3ncc4c(c3c2)n(-c2ccc(N3CCNCC3)c(C(F)(F)F)c2)c(=O)n4C)cn1` [BGT-226 FREE BASE] was tested, and the Kd [1] was > 30 µM (inactive), the Kd [2] was > 30 µM (inactive) and the Kd [3] was > 30 µM (inactive). For the same compound, the Kd [4] was > 30 µM (inactive) and the Kd [5] was > 30 µM (inactive).

`O=S(=O)(c1cccc2c(O)nccc12)N1CCCNCC1` [HYDROXYFASUDIL] was tested, and the Kd [1] was > 30 µM (inactive), the Kd [2] was > 30 µM (inactive) and the Kd [3] was > 30 µM (inactive). For the same compound, the Kd [4] was > 30 µM (inactive) and the Kd [5] was > 30 µM (inactive).

For `CC(C)CC(=O)Nc1[nH]nc2c1CN(C(=O)C1CCN(C)CC1)C2(C)C` [PHA-793887], the Kd [1] was > 30 µM (inactive), the Kd [2] was > 30 µM (inactive) and the Kd [3] was > 30 µM (inactive). For the same compound, the Kd [4] was > 30 µM (inactive) and the Kd [5] was > 30 µM (inactive).
